Test results: patent publication US8415475B2, “Antibacterial quinoline derivatives” (Janssen Pharmaceutica N.V., priority 2006, dated 2013)
In brackets after ≈: the same amount, converted by molar mass.

Assays:
[1] = system: Streptococcus pneumoniae (ATCC6305); experiment: In-vitro anti-bacterial microtitre plate assay, IC90, S. pneumoniae; assay type: cell-based; conditions: 90% inhibitory concentration for bacterial growth, resazurin fluorescence; for IC90: Streptococcus pneumoniae, ATCC6305, 24 h, read-out: IC90 values SPN 1 6305; for IC90 values SPN 1 6305: 24 hours
Method: (§1) D.3. In-Vitro Method for Testing Compounds for Anti-Bacterial Activity Against Various Non-Mycobacterial Strains The bacteria used in this study were grown overnight in flasks containing 100 ml Mueller-Hinton Broth (Becton Dickinson-cat. no. 275730) in sterile de-ionized water, with shaking, at 37° C. Stocks (0.5 ml/tube) were stored at -70° C. until use. Bacteria titrations were performed in microtiter plates to detect the TCID50, in which the TCID50 represents the dilution that gives rise to bacterial growth in 50% of inoculated cultures. In general, an inoculum level of approximately 100 TCID50 was used for susceptibility testing. Flat-bottom, sterile 96-well plastic microtiter plates were filled with 180 μl of sterile deionized water, supplemented with 0.25% BSA. Subsequently, stock solutions (7.8× final test concentration) of compounds were added in 45 μl volumes in column 2. Serial five-fold dilutions (45 μl in 180 μl) were made directly in the microtiter plates from column 2 to reach column 11. Untreated control samples with (column 1) and without (column 12) inoculum were included in each microtiter plate. Depending on the bacteria type, approximately 10 to 60 CFU per well of bacteria inoculum (100 TCID50), in a volume of 100 μl in 2.8× Mueller-Hinton broth medium, was added to the rows […]. The same volume of broth medium without inoculum was added to column 12 in row A to H. The cultures were incubated at 37° C. for 24 hours under a normal atmosphere (incubator with open air valve and continuous ventilation). At the end of incubation, one day after inoculation, the bacterial growth was quantitated fluorometrically. Therefore resazurin (0.6 mg/ml) was added in a volume of 20 μl to all wells 3 hours after inoculation, and the plates were re-incubated overnight. A change in colour from blue to pink indicated the growth of bacteria. The fluorescence was read in a computer-controlled fluorometer (Cytofluor Biosearch) at an excitation wavelength of 530 nm and an emission wavelength of 590 nm. The % growth inhibition achieved by the compounds was calculated according to standard methods.

[2] = system: Staphylococcus aureus (ATCC29213); experiment: In-vitro anti-bacterial microtitre plate assay, IC90, S. aureus; assay type: cell-based; conditions: 90% inhibitory concentration for bacterial growth, resazurin fluorescence; for IC90: Staphylococcus aureus, ATCC29213, 24 h, read-out: IC90 values STA 1 B29213; for IC90 values STA 1 B29213: 24 hours
Method: as §1

[3] = system: Enterococcus faecalis (ATCC29212); experiment: In-vitro anti-bacterial microtitre plate assay, IC90, E. faecalis; assay type: cell-based; conditions: 90% inhibitory concentration for bacterial growth, resazurin fluorescence; for IC90: Enterococcus faecalis, ATCC29212, 24 h, read-out: IC90 values EFA 29212
Method: as §1

[4] = system: Streptococcus pyogens (ATCC8668); experiment: In-vitro anti-bacterial microtitre plate assay, IC90, S. pyogens; assay type: cell-based; conditions: 90% inhibitory concentration for bacterial growth, resazurin fluorescence; for IC90: Streptococcus, ATCC8668, 24 h, read-out: IC90 values SPY 8668
Method: as §1

M. Smegmatis (ATCC607) = experiment: In-vitro anti-bacterial activity against strain M. smegmatis ATCC607; assay type: cell-based; conditions: 90% inhibitory concentration for bacterial growth, Alamar Blue fluorescence; for IC90: Mycolicibacterium smegmatis, ATCC607, 48 h, read-out: IC90 values MSM 1 ATCC607; for IC90 values MSM 1 ATCC607: 48 hours
Method: D.2. In-Vitro Method for Testing Compounds for Anti-Bacterial Activity Against Strain M. smegmatis ATCC607. Flat-bottom, sterile 96-well plastic microtiter plates were filled with 180 μl of sterile deionized water, supplemented with 0.25% BSA. Subsequently, stock solutions (7.8× final test concentration) of compounds were added in 45 μl volumes to a series of duplicate wells in column 2 so as to allow evaluation of their effects on bacterial growth. Serial five-fold dilutions (45 μl in 180 μl) were made directly in the microtiter plates from column 2 to 11 using a customised robot system (Zymark Corp., Hopkinton, Mass.). Pipette tips were changed after every 3 dilutions to minimize pipetting errors with high hydrophobic compounds. Untreated control samples with (column 1) and without (column 12) inoculum were included in each microtiter plate. Approximately 250 CFU per well of bacteria inoculum, in a volume of 100 μl in 2.8× Mueller-Hinton broth medium, was added to the rows […]. The same volume of broth medium without inoculum was added to column 12 in row A to H. The cultures were incubated at 37° C. for 48 hours in a humidified 5% CO2 atmosphere (incubator with open air valve and continuous ventilation). At the end of incubation, two days after inoculation, the bacterial growth was quantitated fluorometrically. Therefore Alamar Blue (10×) was added to all wells in a volume of 20 μl and plates were incubated for another 2 hours at […] The fluorescence was read in a computer-controlled fluorometer (Cytofluor, Biosearch) at an excitation wavelength of 530 nm and an emission wavelength of 590 nm (gain 30).

Compound | melting point | IC90 [1] | IC90 [2] | IC90 values SPN 1 6305 [1] | IC90 values STA 1 B29213 [2] | IC90 values MSM 1 ATCC607 (M. Smegmatis (ATCC607)) | further results
C=Cc1ccc2nc(OC)c(C(c3ccc(Cl)cc3)C(O)(CCN(C)C)c3ccccc3)cc2c1 (single isomer, unassigned) [Compound 1] | 184 °C | 1.7 µg/mL (≈ 3.49 µM) | 48.7 µg/mL (≈ 100 µM) | – | – | – | –
C=Cc1ccc2nc(OC)c(C(c3ccc(Cl)cc3)C(O)(CCN(C)C)c3ccccc3)cc2c1 (single isomer, unassigned) [Compound 2] | 187 °C | – | – | 1.7 µg/mL (≈ 3.49 µM) | 48.7 µg/mL (≈ 100 µM) | – | IC90 [3]: 38.7 µg/mL (≈ 79.4 µM); IC90 [4]: 1.22 µg/mL (≈ 2.5 µM); IC90 (M. Smegmatis (ATCC607)): 1.4 µg/mL (≈ 2.87 µM)
COc1nc2ccc(/C=N/O)cc2cc1C(c1ccccc1)C(O)(CCCCN(C)C)c1ccccc1 (single isomer, unassigned) [Compound 3] | – | 49.8 µg/mL (≈ 100 µM) | 7.9 µg/mL (≈ 15.9 µM) | – | – | – | IC90 (M. Smegmatis (ATCC607)): 7.9 µg/mL (≈ 15.9 µM)
CO/N=C/c1ccc2nc(OC)c(C(c3ccccc3)C(O)(CCCCN(C)C)c3ccccc3)cc2c1 (single isomer, unassigned) [Compound 4] | – | 10.2 µg/mL (≈ 19.9 µM) | 8.1 µg/mL (≈ 15.8 µM) | – | – | – | IC90 (M. Smegmatis (ATCC607)): 1.6 µg/mL (≈ 3.13 µM)
C=Cc1ccc2nc(OC)c(C(c3ccccc3)C(O)(CCc3ccc(F)cc3)CCN(C)C)cc2c1 (single isomer, unassigned) [Compound 6] | 135 °C | 1.3 µg/mL (≈ 2.61 µM) | 1.6 µg/mL (≈ 3.21 µM) | – | – | 0.1 µg/mL (≈ 0.201 µM) | –
C=Cc1ccc2nc(OC)c(C(c3ccccc3)C(O)(CCc3ccc(F)cc3)CCN(C)C)cc2c1 (single isomer, unassigned) [Compound 7] | 156 °C | – | – | 1.3 µg/mL (≈ 2.61 µM) | 1.6 µg/mL (≈ 3.21 µM) | 1.3 µg/mL (≈ 2.61 µM) | –
C=Cc1ccc2nc(OC)c(C(c3ccccc3)C(O)(CCN(C)C)c3cccc4ccccc34)cc2c1 (single isomer, unassigned) [Compound 10] | – | – | 50.3 µg/mL (≈ 100 µM) | 20.0 µg/mL (≈ 39.8 µM) | – | – | IC90 (M. Smegmatis (ATCC607)): 8 µg/mL (≈ 15.9 µM)
C/C=C/c1ccc2nc(OC)c(C(c3ccccc3)C(O)(CCN(C)C)c3cccc4ccccc34)cc2c1 (single isomer, unassigned) [Compound 12] | 189 °C | – | 51.7 µg/mL (≈ 100 µM) | 0.7 µg/mL (≈ 1.35 µM) | – | 0.3 µg/mL (≈ 0.581 µM) | IC90 [3]: 51.7 µg/mL (≈ 100 µM); IC90 [4]: 51.7 µg/mL (≈ 100 µM)
CC#Cc1ccc2nc(OC)c(C(c3ccccc3)C(O)(CCN(C)C)c3cccc4ccccc34)cc2c1 (single isomer, unassigned) [Compound 13] | 100 °C | – | 51.5 µg/mL (≈ 100 µM) | 0.3 µg/mL (≈ 0.583 µM) | – | 0.003 µg/mL (≈ 0.00583 µM) | IC90 [3]: 51.5 µg/mL (≈ 100 µM); IC90 [4]: 51.5 µg/mL (≈ 100 µM)
CC#Cc1ccc2nc(OC)c(C(c3ccccc3)C(O)(CCN(C)C)c3cccc4ccccc34)cc2c1 (single isomer, unassigned) [Compound 14] | 202 °C | – | – | 1.5 µg/mL (≈ 2.91 µM) | 45.9 µg/mL (≈ 89.2 µM) | 0.3 µg/mL (≈ 0.583 µM) | IC90 values EFA 29212 ([3]; 24 hours): 51.47 µg/mL (≈ 100 µM); IC90 values SPY 8668 ([4]; 24 hours): 40.88 µg/mL (≈ 79.4 µM)
COc1nc2ccc(CN)cc2cc1C(c1ccccc1)C(O)(CCN(C)C)c1cccc2ccccc12 (single isomer, unassigned) [Compound 20] | – | 8 µg/mL (≈ 15.8 µM) | – | – | 35.8 µg/mL (≈ 70.8 µM) | 40.2 µg/mL (≈ 79.5 µM) | –
COc1nc2ccc(CN(C)C)cc2cc1C(c1ccccc1)C(O)(CCN(C)C)c1cccc2ccccc12 (single isomer, unassigned) [Compound 21] | – | 13.4 µg/mL (≈ 25.1 µM) | 10.7 µg/mL (≈ 20 µM) | – | – | 0.7 µg/mL (≈ 1.31 µM) | –
COc1nc2ccc(CN(C)C)cc2cc1C(c1ccccc1)C(O)(CCN(C)C)c1cccc2ccccc12 (single isomer, unassigned) [Compound 22] | – | – | – | 21.3 µg/mL (≈ 39.9 µM) | 9.5 µg/mL (≈ 17.8 µM) | 18.9 µg/mL (≈ 35.4 µM) | –
COc1nc2ccc(/C=N/O)cc2cc1C(c1ccccc1)C(O)(CCN(C)C)c1cccc2ccccc12 (single isomer, unassigned) [Compound 24] | 167 °C | – | 8.2 µg/mL (≈ 15.8 µM) | 1.6 µg/mL (≈ 3.08 µM) | – | 2.3 µg/mL (≈ 4.43 µM) | –
COc1nc2ccc(CN3CCN(C)CC3)cc2cc1C(c1ccccc1)C(O)(CCN(C)C)c1cccc2ccccc12 (single isomer, unassigned) [Compound 29] | – | 10.5 µg/mL (≈ 17.8 µM) | 9.3 µg/mL (≈ 15.8 µM) | – | – | – | IC90 (M. Smegmatis (ATCC607)): 2.6 µg/mL (≈ 4.42 µM)
COc1nc2ccc(/C=N/O)cc2cc1C(c1ccccc1)C(O)(CCCCN(C)C)c1ccc2ccccc2c1 (single isomer, unassigned) [Compound 32] | – | – | 1.7 µg/mL (≈ 3.1 µM) | 10.9 µg/mL (≈ 19.9 µM) | – | 7.7 µg/mL (≈ 14.1 µM) | –
COc1nc2ccc(/C=N/O)cc2cc1C(c1ccccc1)C(O)(CCCCN(C)C)c1ccc2ccccc2c1 (single isomer, unassigned) [Compound 33] | 180 °C | – | – | 1.9 µg/mL (≈ 3.47 µM) | 1.7 µg/mL (≈ 3.1 µM) | 1.7 µg/mL (≈ 3.1 µM) | –
C=Cc1ccc2nc(OC)c(C(c3ccccc3)C(O)(CCCCN3CCCCC3)c3ccccc3)cc2c1 (single isomer, unassigned) [Compound 34] | – | – | 1.7 µg/mL (≈ 3.26 µM) | 2.1 µg/mL (≈ 4.03 µM) | – | – | IC90 (M. Smegmatis (ATCC607)): 1.7 µg/mL (≈ 3.26 µM)
C=Cc1ccc2nc(OC)c(C(c3ccccc3)C(O)(CCCCN3CCCCC3)c3ccccc3)cc2c1 (single isomer, unassigned) [Compound 35] | – | – | – | 10.4 µg/mL (≈ 20 µM) | 1.7 µg/mL (≈ 3.26 µM) | 1.7 µg/mL (≈ 3.26 µM) | –
COc1nc2ccc(C(=O)c3cccc(Br)c3)cc2cc1C(c1ccc(Cl)cc1)C(O)(CCN(C)C)c1ccccc1 (single isomer, unassigned) [Compound 40] | 185 °C | – | – | – | – | – | –
COc1nc2ccc(C(=O)c3cccc(Br)c3)cc2cc1C(c1ccccc1)C(O)(CCN(C)C)c1cccc2ccccc12 (stereo not drawn) [Compound 38] | 118 °C | – | – | – | – | – | –
